Columns and labels:
GCN2 = GCN2 (Homo sapiens, UniProt Q9P2K8); experiment: GCN2 enzyme assay (TR-FRET Lanthascreen, GFP-eIF2alpha substrate); assay type: biochemical
Text: GCN2: Assay Principle & Conditions
This assay can quantificate the activity of the serin kinase GCN2 (general control non-derepressible-2).
This kinase is involved in the stress metabolism of cells. It is activated upon starvation (amino acid depletion). Its natural substrate is eIF2a (eukaryotic initiation factor 2 alpha subunit), a translation factor, which gets activated (phosphorylated) by GCN2 in case of an amino acid bottleneck in the cells. This in turn leads to a halt of the protein synthesis. Inhibition of GCN2 results in stopping this mechanism: The cell can not stop protein production upon “starvation” stress.
The assay is run in two steps: the enzymatic reaction and the detection step. In the first step GCN2 is incubated with 10 μM ATP and 80 nM of the GFP-labelled substrate eIF2alpha at room temperature.
The enzymatic reaction is stopped by addition of EDTA. The amount of phosphorylated eIF2alpha is determined by TR-FRET (Lanthascreen): A complex is formed consisting of antibody and GFP labelled phospho-eIF2a, which allows a FRET upon exitation at 340 nm.
Final Concentrations in the Enzymatic Reaction • Hepes, pH 7.0 50 mM • MgCl2 10 mM • MnCl2 5 mM • BSA 0.1% • DMSO 1% • ATP 10 uM • DTT 2 mM • GFP-eIF2a 80 nM (substrate) • GCN2 30 nM (enzyme)

SYK = biological target: T1, SYK (Homo sapiens, UniProt P43405); experiment: SYK enzyme assay (Flash plate assay / Caliper mobility shift assay); assay type: biochemical; conditions: for SYK (enzyme assay) % at 3 μM: 100% corresponds to zero effect, −50% corresponds to IC50
T1 construct: purchased BPS Bioscience, CA, USA
Experimental: The kinase assay is performed either as 384-well Flashplate assay (for e.g. Topcount measurement) or as 384-well Image-Flashplate assay (for LEADseeker measurement).
2.5 nM SYK, 400 nM Biotin-Aha-Aha-[…]
and 10 μM ATP (spiked with 0.3 μCi 33P-ATP/well) are incubated in a total volume of 50 μl (60 mM Hepes, 10 mM MgCl2, 1.2 mM Dithiothreitol, 0.02% Brij35, 0.1% BSA, pH 7.5) with or without test compound for 1 hours at 30° C. The reaction is stopped with 25 μl 200 mM EDTA. After 30 Min at 30° C. the liquid is removed and each well washed thrice with 100 μl 0.9% sodium chloride solution. Non-specific reaction is determined in presence of 0.1 μM Staurosporine. Radioactivity is measured with Topcount (when using Flashplates) or with LEADseeker (when using Image-Flashplates) respectively. Results (e.g. IC50-values) are calculated with program tools provided by the IT-department (e.g. Symyx Assay Explorer, Genedata Screener).
Enzymatic Assays Using the Caliper LifeSciences Technology
The assays described here are performed on the Caliper Life Sciences LC3000 system This technology provides data on enzyme activity via measurement of the relative amounts of phosphorylated or unphosphorylated fluorescently labelled substrate peptide at the end of an enzymatic reaction.
These different states of peptide are resolved by applying a potential difference across the sample. The presence of the charged phosphate group on the product (as opposed to the substrate) causes a different peptide mobility between the two peptides. This is visualized by excitation of the fluorescent label on the substrate and product peptides and represented as peaks within the analysis software.
In order to measure inhibitor activity of kinase inhibitors on this technology, a TTP Mosquito liquid handling instrument is used to place 0.25 ul of the appropriate concentration of inhibitor in 100% DMSO (for a dose response curve calculation) into each well of a 384-well plate. To this reaction components are added to a final volume of 25 ul. The table below indicates the sequences and concentrations for the assays described in this report. Standard components are 1 mM DTT (Sigma, D0632), 1 mM MgCl2 (Sigma, M1028), 100 mM HEPES pH 7.5 (Calbiochem, 391338), 0.015% Brij-35 (Sigma, B4184).
The reaction is incubated for 90 min at 25 C, and then stopped by the addition of 70 ul of Stop buffer (100 mM HEPES pH 7.5, 0.015% Brij-35, 10 mM EDTA (Sigma, E7889)).
The plate is read on a Caliper LC 3000 in an Off-Chip mobility shift assay format, on a 12-sipper chip. Unphosphorylated substrate and phosphorylated product peptide resolve as separate peaks allowing direct measurement of percentage of conversion of substrate to product. The percent conversion can be plotted against concentration of inhibitor to produce a sigmoidal dose response curve, from which an IC50 can be calculated using GeneData Condoseo or a similar product.

GCN2, sequence (Q9P2K8 whole entry): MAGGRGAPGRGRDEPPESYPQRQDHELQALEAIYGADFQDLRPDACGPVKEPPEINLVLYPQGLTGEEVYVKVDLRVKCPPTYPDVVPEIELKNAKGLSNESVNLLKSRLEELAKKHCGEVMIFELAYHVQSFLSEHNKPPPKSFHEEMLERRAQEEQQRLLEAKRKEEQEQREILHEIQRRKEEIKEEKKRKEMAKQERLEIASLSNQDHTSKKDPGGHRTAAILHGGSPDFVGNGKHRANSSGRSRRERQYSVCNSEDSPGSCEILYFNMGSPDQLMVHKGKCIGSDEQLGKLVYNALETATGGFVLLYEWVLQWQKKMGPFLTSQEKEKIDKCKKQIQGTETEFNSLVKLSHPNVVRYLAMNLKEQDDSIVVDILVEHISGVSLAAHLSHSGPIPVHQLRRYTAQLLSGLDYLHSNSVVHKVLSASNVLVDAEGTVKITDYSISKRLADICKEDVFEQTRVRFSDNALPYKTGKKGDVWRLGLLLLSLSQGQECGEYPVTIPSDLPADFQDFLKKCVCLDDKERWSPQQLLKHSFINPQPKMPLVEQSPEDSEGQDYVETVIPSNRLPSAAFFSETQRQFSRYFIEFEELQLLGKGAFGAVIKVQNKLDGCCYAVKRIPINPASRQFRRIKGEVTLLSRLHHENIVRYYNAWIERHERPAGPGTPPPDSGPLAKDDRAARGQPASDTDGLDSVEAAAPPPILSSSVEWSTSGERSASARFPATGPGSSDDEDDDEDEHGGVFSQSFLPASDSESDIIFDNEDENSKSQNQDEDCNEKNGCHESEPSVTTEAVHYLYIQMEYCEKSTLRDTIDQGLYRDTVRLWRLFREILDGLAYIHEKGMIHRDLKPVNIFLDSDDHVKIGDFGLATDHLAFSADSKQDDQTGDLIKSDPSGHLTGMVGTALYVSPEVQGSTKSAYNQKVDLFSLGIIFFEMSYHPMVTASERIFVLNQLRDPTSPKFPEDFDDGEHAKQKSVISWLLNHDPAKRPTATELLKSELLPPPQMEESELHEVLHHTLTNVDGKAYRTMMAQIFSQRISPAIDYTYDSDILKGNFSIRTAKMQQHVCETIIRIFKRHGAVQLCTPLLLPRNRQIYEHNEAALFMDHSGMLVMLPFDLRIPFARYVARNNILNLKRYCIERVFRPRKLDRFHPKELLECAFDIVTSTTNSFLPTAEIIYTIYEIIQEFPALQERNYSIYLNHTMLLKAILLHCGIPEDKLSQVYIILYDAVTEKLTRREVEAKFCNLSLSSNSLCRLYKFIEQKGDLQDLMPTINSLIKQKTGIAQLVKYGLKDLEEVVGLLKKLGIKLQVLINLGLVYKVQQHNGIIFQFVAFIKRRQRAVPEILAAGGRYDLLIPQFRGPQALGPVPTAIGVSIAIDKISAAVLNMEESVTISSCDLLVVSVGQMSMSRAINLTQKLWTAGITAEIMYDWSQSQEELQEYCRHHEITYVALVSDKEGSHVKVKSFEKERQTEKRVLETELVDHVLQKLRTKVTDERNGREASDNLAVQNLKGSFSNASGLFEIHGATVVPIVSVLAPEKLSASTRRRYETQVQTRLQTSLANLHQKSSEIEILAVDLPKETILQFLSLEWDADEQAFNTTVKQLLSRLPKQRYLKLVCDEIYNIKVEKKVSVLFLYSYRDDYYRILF

| IC50 (GCN2) [nM] | SYK (enzyme assay) % at 3 μM (SYK) | IC50 (SYK) [nM] | SMILES |
| --- | --- | --- | --- |
| < 1000 |  | 1000 to 5000 | COc1cc(Nc2nc3cncc(-c4cnn(C)c4)n3n2)ccc1N1CCN(C)CC1 [Compound A67, [3-methoxy-4-(4-methyl-piperazin-1-yl)-phenyl]-[5-(1-methyl-1H-pyrazol-4-yl)-[1,2,4]triazolo[1,5-a]pyrazin-2-yl]-amine] |
| < 1000 |  | 1000 to 5000 | Cc1cc(Nc2nc3cncc(-c4cnn(C)c4)n3n2)ccc1CN1CCOCC1 [Compound A68, (3-methyl-4-morpholin-4-ylmethyl-phenyl)-[5-(1-methyl-1H-pyrazol-4-yl)-[1,2,4]triazolo[1,5-a]pyrazin-2-yl]-amine] |
| < 1000 |  | < 1000 | Cn1cc(-c2cncc3nc(Nc4ccc(N5CCOCC5)cc4)nn23)cn1 [Compound A35, [5-(1-methyl-1H-pyrazol-4-yl)-[1,2,4]triazolo[1,5-a]pyrazin-2-yl]-(4-morpholin-4-yl-phenyl)-amine] |
| < 1000 | −29@3% |  | COc1cccc(Nc2nc3cncc(-c4ccc5c(cnn5C)c4)n3n2)c1 [Compound A2] |
| 1000 to 5000 |  | 1000 to 5000 | Cn1cc(-c2cncc3nc(Nc4ccc(S(C)(=O)=O)cc4)nn23)cn1 [Compound A11, (4-methanesulfonyl-phenyl)-[5-(1-methyl-1H-pyrazol-4-yl)-[1,2,4]triazolo[1,5-a]pyrazin-2-yl]-amine] |
| < 1000 |  | 1000 to 5000 | Cc1cc(Nc2nc3cncc(-c4cnn(C)c4)n3n2)ccc1C(=O)NCC1CC1 [Compound A69, N-cyclopropylmethyl-2-methyl-4-[5-(1-methyl-1H-pyrazol-4-yl)-[1,2,4]triazolo[1,5-a]pyrazin-2-ylamino]-benzamide] |
| < 1000 |  | 1000 to 5000 | Cn1cc(-c2cncc3nc(Nc4ccc5c(c4)OCCO5)nn23)cn1 [Compound A59, (2,3-dihydro-benzo[1,4]dioxin-6-yl)-[5-(1-methyl-1H-pyrazol-4-yl)-[1,2,4]triazolo[1,5-a]pyrazin-2-yl]-amine] |
| < 1000 | −33@3% |  | COc1cccc(Nc2nc3cncc(-c4cnn(C)c4)n3n2)c1 [Compound A30] |
| < 1000 |  | 5000 to 10000 | Cc1cc(Nc2nc3cncc(-c4cnn(C)c4)n3n2)ccc1NC(=O)C1CCC1 [Compound A65, cyclobutanecarboxylic acid {2-methyl-4-[5-(1-methyl-1H-pyrazol-4-yl)-[1,2,4]triazolo[1,5-a]pyrazin-2-ylamino]-phenyl}-amide] |

Further lines, the molecule ahead of its results:

| SMILES | IC50 (GCN2) [nM] | SYK (enzyme assay) % at 3 μM (SYK) | IC50 (SYK) [nM] |
| --- | --- | --- | --- |
| O=C1Cc2cc(Nc3nc4cncc(-c5ccc(CN6CCOCC6)s5)n4n3)ccc2N1 [Compound A58, 5-[5-(5-morpholin-4-ylmethyl-thiophen-2-yl)-[1,2,4]triazolo[1,5-a]pyrazin-2-ylamino]-1,3-dihydro-indol-2-one] | < 1000 | −34@3% |  |
| CN1CCN(c2ccc(Nc3nc4cncc(-c5cnn(CCN6CCOCC6)c5)n4n3)cc2)CC1 [Compound A48, [4-(4-methyl-piperazin-1-yl)-phenyl]-{5-[1-(2-morpholin-4-yl-ethyl)-1H-pyrazol-4-yl]-[1,2,4]triazolo[1,5-a]pyrazin-2-yl}-amine] | < 1000 |  | 5000 to 10000 |
| COc1cccc(Nc2nc3cnc(Br)cn3n2)c1 [Compound A22] | < 1000 | −15@3% |  |
| Clc1cn2nc(Nc3cccnc3)nc2cn1 [Compound A20] | 1000 to 5000 | 1@3% |  |
| COc1cc(Nc2nc3cncc(-c4cnn(CCC(C)C)c4)n3n2)ccc1N1CCN(C)CC1 [Compound A76, [3-methoxy-4-(4-methyl-piperazin-1-yl)-phenyl]-{5-[1-(3-methyl-butyl)-1H-pyrazol-4-yl]-[1,2,4]triazolo[1,5-a]pyrazin-2-yl}-amine] | < 1000 |  | 1000 to 5000 |
| Cc1cc(Nc2nc3cncc(-c4cnc5ccccc5c4)n3n2)ccc1N1CCN(C)CC1 [Compound A8, [3-methyl-4-(4-methyl-piperazin-1-yl)-phenyl]-(5-quinolin-3-yl-[1,2,4]triazolo[1,5-a]pyrazin-2-yl)-amine] | 1000 to 5000 |  | 1000 to 5000 |
| CC1(C)C(=O)Nc2cc(Nc3nc4cncc(-c5cnc6ccccc6c5)n4n3)ccc21 [Compound A9, 3,3-dimethyl-6-(5-quinolin-3-yl-[1,2,4]triazolo[1,5-a]pyrazin-2-ylamino)-1,3-dihydro-indol-2-one] | 1000 to 5000 |  | 1000 to 5000 |
| Cc1ncc2nc(Nc3ccc(N4CCOCC4)cc3)nn2c1-c1cnn(C)c1 [Compound A44, [6-methyl-5-(1-methyl-1H-pyrazol-4-yl)-[1,2,4]triazolo[1,5-a]pyrazin-2-yl]-(4-morpholin-4-yl-phenyl)-amine] | 5000 to 10000 |  | 1000 to 5000 |
| Cc1cc(Nc2nc3cncc(-c4cnn(C)c4)n3n2)ccc1C(=O)N1CCOCC1 [Compound A73, {2-methyl-4-[5-(1-methyl-1H-pyrazol-4-yl)-[1,2,4]triazolo[1,5-a]pyrazin-2-ylamino]-phenyl}-morpholin-4-yl-methanone] | < 1000 |  | 1000 to 5000 |
| CN1C(=O)Cc2cc(Nc3nc4cncc(-c5cnn(CCN6CCOCC6)c5)n4n3)ccc21 [Compound A52, 1-methyl-5-{5-[1-(2-morpholin-4-yl-ethyl)-1H-pyrazol-4-yl]-[1,2,4]triazolo[1,5-a]pyrazin-2-ylamino}-1,3-dihydro-indol-2-one] | 1000 to 5000 | −32@3% |  |
| Cc1cc(Nc2nc3cncc(-c4ccc(N5CCOCC5)cc4)n3n2)ccc1N1CCN(C)CC1 [Compound A17, [3-methyl-4-(4-methyl-piperazin-1-yl)-phenyl]-[5-(4-morpholin-4-yl-phenyl)-[1,2,4]triazolo[1,5-a]pyrazin-2-yl]-amine] | < 1000 |  | 1000 to 5000 |
| Cn1cc(-c2cncc3nc(Nc4ccc(CN5CCOCC5)cc4)nn23)cn1 [Compound A61, [5-(1-methyl-1H-pyrazol-4-yl)-[1,2,4]triazolo[1,5-a]pyrazin-2-yl]-(4-morpholin-4-ylmethyl-phenyl)-amine] | < 1000 |  | 1000 to 5000 |
| Cc1cc(Nc2nc3cncc(-c4cnn(CCN5CCOCC5)c4)n3n2)ccc1N1CCN(C)CC1 [Compound A50, [3-methyl-4-(4-methyl-piperazin-1-yl)-phenyl]-{5-[1-(2-morpholin-4-yl-ethyl)-1H-pyrazol-4-yl]-[1,2,4]triazolo[1,5-a]pyrazin-2-yl}-amine] | < 1000 | −32@3% |  |
| COc1ccc(-c2cncc3nc(Nc4ccc(N5CCN(C)CC5)c(OC)c4)nn23)cc1 [Compound A92, [3-methoxy-4-(4-methyl-piperazin-1-yl)-phenyl]-[5-(4-methoxy-phenyl)-[1,2,4]triazolo[1,5-a]pyrazin-2-yl]-amine] | < 1000 |  | < 1000 |
| Fc1ccc(-c2cncc3nc(Nc4cccnc4)nn23)cc1 [Compound A27, [5-(4-fluoro-phenyl)-[1,2,4]triazolo[1,5-a]pyrazin-2-yl]-pyridin-3-yl-amine] | 1000 to 5000 | −6@3% |  |

Reference: US20150051202A1, “TRIAZOLOPYRAZINE DERIVATIVES” (Merck Patent GmbH, priority 2012, published 2015)
